Assay results from patent publication US12098356B2, “Effects of space travel on human brain cells” (EMULATE, Inc., priority 2017, dated 2024).

Test system: glutamatergic neurons on the Brain-Chip
Test: Calcium imaging (Fluo-4 AM) of neuronal activity on the Brain-Chip
Assay type: cell-based, human
Details: NMDA and AMPA receptor inhibition (DAP5 and CNQX respectively), compared to control without inhibitors
Excerpt: FIG. 30A Spontaneous activity was studied by means of calcium imaging, enabling the investigation of neuronal activity of single cells and the network as a whole. Fluo-4 AM, a calcium sensitive fluorescent dye, was loaded onto the cells, and intracellular calcium fluctuations were monitored over time using high-speed imaging. […] FIG. 38A-C Pharmacological Targeting of the Glutamatergic Neurons in the Brain-Chip. […] Scale bars=200 μm. […] FIG. 38A-C Pharmacological Targeting of the Glutamatergic Neurons in the Brain-Chip. […] Scale bars=200 μm.

SMILES: N#Cc1cc2c(cc1[N+](=O)[O-])=NC(=O)C(=O)N=2 [CNQX, 6-cyano-7-nitroquinoxaline-2,3-dione]
- effect on percentage of active neurons: reduced the percentage of active neurons
